Assays:
[1] = cited from earlier work
[2] = cited from earlier work; remark: listed apart in the source
[3] = human, in vivo
[4] = Expected patient plasma DXA at the exemplary elution rates; format: in vivo; settings: below LOQ
Protocol: With a manufacturing process that consists of at least two months (60 days) from the start of elution until implant, and using data from in vitro release testing, a daily release of between approximately 2 and 5 μg DXA in one exemplary embodiment is expected over the life of the implant (average of approximately 3 μg/day). These exemplary elution rates are within range of the elution rates seen in the above-referenced predicate devices. At these elution rates, it can be reasonably expected that patient plasma DXA levels to be below the 50 pg/mL LOQ. The full modeled release profile is shown in FIG. 2, which illustrates total release 212 of DXA from the implantable sensor device accumulating prior to implantation with, daily release 214 of DXA from the implantable sensor starting at a rate of approximately 4.8 μg per day upon implantation and gradually reducing to below 2.0 μg/day over the period of implantation. In other embodiments, DSP, other dexamethasone compounds, and/or other eluting anti-inflammatory drugs may be used similarly.

| SMILES | water solubility [1] | plasma DXA ([2]; one device implanted, no measurable DXA, LOQ = 50 pg/mL) [pg/mL] | maximum reported plasma DXA ([2]; two devices implanted) [pg/mL] | time DXA measurable in plasma after implant ([2]; two devices implanted, some patients) | daily dose required to have a DXA level greater than the LOQ in plasma [3] [µg] | expected patient plasma DXA levels [4] [pg/mL] |
| --- | --- | --- | --- | --- | --- | --- |
| C[C@@H]1C[C@H]2[C@@H]3CCC4=CC(=O)C=C[C@]4(C)[C@@]3(F)[C@@H](O)C[C@]2(C)[C@@]1(O)C(=O)COP(=O)(O)O [DSP, dexamethasone sodium phosphate] | highly water soluble |  |  |  |  |  |
| CC(=O)OCC(=O)[C@@]1(O)[C@H](C)C[C@H]2[C@@H]3CCC4=CC(=O)C=C[C@]4(C)[C@@]3(F)[C@@H](O)C[C@@]21C [DXA, dexamethasone acetate] |  | < 50 | 114 | up to 8 days | ≥ 15 | < 50 |
